Read-outs that look alike come from different tables or passages of the source.
Experiments:
[1] = system: retinal neovascularization in C57BL/6 mice; assay: Oxygen-induced retinopathy, area of retinal neovascularization; format: in vivo; conditions: 5 ug peri-ocularly every 5 days
Method: C57BL/6 mice placed in 75% O2 at postnatal day (P) 7 and at P12 were returned to room air and treatment initiated with compound or vehicle. At P17, the area of retinal NV on the surface of the retina was measured as described previously (Shen et al., 2007). Briefly, P17 mice were given an intraocular injection of 1 μl of rat anti-mouse platelet endothelial cell adhesion molecule-1 (PECAM-1) antibody (Pharmingen, San Jose, Calif., USA); after 12 h, they were euthanized, and eyes were fixed in PBS-buffered formalin for 5 h at room temperature. Retinas were dissected, washed, and incubated with goat-anti rat polyclonal antibody conjugated with Alexa 488 (Invitrogen, Carlsbad, Calif., USA) at 1:500 dilution at room temperature for 45 min and flat mounted. An observer masked with respect to treatment group measured the area of NV per retina by image analysis.
(see, FIGS. 12 and 13). In systemic experiments both eyes were examined and no significant differences were observed between CCR3 inhibitor '994 and vehicle treated groups. In topical experiments no significant differences were noted between CCR3 inhibitor '994 and vehicle groups nor treated and fellow eye in the CCR3 inhibitor '994 treated group. […] Consequently SU4312 acts similarly on retinal neovascularization to that of an alternative receptor tyrosine kinase inhibitor pazopanib which was effective in limiting choroidal neovascularization.

[2] = system: laser-induced CNV in Cynomolgus monkey; assay: Laser-induced choroidal neovascular AMD study in the Cynomolgus monkey, Grade IV lesions; format: in vivo
Method: Cynomolgus monkeys were dosed with vehicle or the CCR3 antagonist tool compound the '415 compound as shown in Table A for 29 days with laser occurring […]. […]
The macula of each eye underwent laser treatment with a 532-nm diode green laser burns (OcuLight GL, IRIDEX Corp Inc, Mountain View, Calif.) using a slit lamp delivery system and a Kaufman-Wallow (Ocular Instruments Inc, Bellevue, Wash.) plano fundus contact lens. Animals were anesthetized and nine areas symmetrically placed in the macula of each eye. The laser parameters included a 75-micron spot size and 0.1-second duration. The power setting used was assessed by the ability to produce a blister and a small haemorrhage. Unless haemorrhage is observed with the first laser treatment, a second laser spot will be placed adjacent to the first following the same laser procedure (except the wattage would be adjusted). For areas not adjacent to the fovea, the initial power setting was 500 mW; if a second spot is placed, the power was set to 650 mW. For the area adjacent to the fovea, the power settings was 400 mW (initial treatment) and 550 mW (second treatment). […]
Animals were fasted before fluorescein angiography for at least 2 hours prior to being anesthetized and the eyes dilated with a mydriatic agent. […] Comparison of the incidence of Grade IV lesions between groups was evaluated.

Cynomolgus monkey CCR3 = target: T1, Cynomolgus monkey CCR3 (Macaca fascicularis, UniProt Q9BDS8); assay: Cynomolgus monkey whole blood eotaxin-stimulated eosinophil shape change assay; format: cell-based
T1 construct: from tissue; host or cells: Cynomolgus monkey whole blood (eosinophils)
T1 sequence (Q9BDS8 1-355): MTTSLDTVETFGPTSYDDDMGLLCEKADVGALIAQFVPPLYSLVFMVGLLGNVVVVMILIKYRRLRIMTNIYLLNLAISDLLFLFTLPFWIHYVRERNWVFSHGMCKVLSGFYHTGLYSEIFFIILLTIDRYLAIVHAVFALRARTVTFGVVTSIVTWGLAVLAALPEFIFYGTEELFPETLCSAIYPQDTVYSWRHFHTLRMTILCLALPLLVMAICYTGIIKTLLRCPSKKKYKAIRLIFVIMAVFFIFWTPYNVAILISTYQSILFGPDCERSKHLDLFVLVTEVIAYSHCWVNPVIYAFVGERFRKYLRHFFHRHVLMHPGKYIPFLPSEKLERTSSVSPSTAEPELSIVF
Method: Blood (10 mL) was taken from Cynomolgus monkeys and 1.1 ml of 3.8% sodium citrate solution added. Aliquots (90 μl) were incubated with antagonist at room temperature for 10 minutes then transferred to BSA-coated micronic tubes containing agonist (10 μl human eotaxin (Peprotech) Eotaxin was present at final concentrations between 0 and 1000 nM. The cells were incubated at 37° C. for a further 4 minutes before addition of […] of ice-cold fixation buffer (a ¼ dilution of 1x Cellfix (Becton Dickinson)). After a minimum of 2 minutes the fixed samples were transferred into 2 ml of ice cold erythrocyte lysis buffer (155 mM NH4Cl, 10 mM KHCO3) and incubated on ice until lysis was complete (˜30 minutes). The mean forward scatter of the eosinophil population was then determined on a FACScalibur flow cytometer.
The concentration response curve of eotaxin-1 on eosinophil shape change in Cynomolgus whole blood and the effect of pre-incubation of 10 nM and 100 nM the '415 compound is shown in FIG. 11.

[3] = target: T2, Cynomolgus whole blood CCR3 (Macaca fascicularis, UniProt Q9BDS8); assay: Fractional receptor occupancy at trough in Cynomolgus monkey; format: in vivo; conditions: at trough (8 hours); both 9 mg/kg/day and 60 mg/kg/day, TID
T2 construct: from tissue; host or cells: Cynomolgus monkey whole blood (eosinophils)
T2 sequence (Q9BDS8 1-355): T1 sequence (Q9BDS8 1-355)

[4] = Exposure in Cynomolgus monkey; conditions: in vivo
[5] = system: laser-induced model of CNV AMD; conditions: oral dosing; Mizutani et al., 2011; cited from earlier work

Structure (SMILES): CN(C)c1ccc(/C=C2\C(=O)Nc3ccccc32)cc1 [SU4312]
- effect on retinal neovascularization [1]: effective inhibitor
- p, reduction in retinal neovascularization, treated versus fellow (non-treated) eyes [1]: < 0.004
- p, reduction in retinal neovascularization, treated versus vehicle treated eyes [1]: < 0.003

Structure (SMILES): Cn1nnc(CNC(=O)NC[C@H]2CN(Cc3ccc(Cl)c(Cl)c3)CCO2)n1 [the '415 compound, (S)-1-((4-(3,4-dichlorobenzyl)morpholin-2-yl)methyl)-3-((2-methyl-2H-tetrazol-5-yl)methyl)urea]
- effect on the generation of grade IV lesions ([2]; 20 mg/kg TID po, fluorescence angiography at 16, 24 and 30 days post-laser): statistically robust effect
- effect on the number of grade IV lesions ([2]; lower dose (3 mg/kg TID po)): not statistically different from controls
- inhibition of human eotaxin-induced eosinophil shape change (Cynomolgus monkey CCR3; Cynomolgus whole blood): concentration-dependent, surmountable inhibition
- Kb (Cynomolgus monkey CCR3; depending on experiment, read-out: pA2, potency against Cynomolgus monkey CCR3 (converted)): 10 to 100 nM
- Kb (Cynomolgus monkey CCR3; eotaxin-1 stimulated eosinophil shape change in Cynomolgus whole blood, read-out: mean pA2 (Schild analysis) (converted)): 15.8 nM
- fractional receptor occupancy [3]: > 95%
- exposure in Cynomolgus monkey [4]: reasonable exposure in this primate with low inter-animal variability

Structure (SMILES): Cc1ccc[n+]([O-])c1C(=O)N1CCC(=CC(=O)NC2CCN(Cc3ccc4cc(F)ccc4c3)C2)CC1 (centres unmarked) [YM-344031]
- efficacy in a laser-induced model of CNV AMD [5]: effective

— patent US20140335083A1, “METHODS OF TREATMENT AND PREVENTION OF EYE DISEASES” (GLAXO GROUP LIMITED, priority 2011, published 2014)
